# From ChEMBL document CHEMBL4152384, “Pyrtriazoles, a Novel Class of Store-Operated Calcium Entry Modulators: Discovery, Biological Profiling, and in Vivo Proof-of-Concept Efficacy in Acute Pancreatitis” (J Med Chem, 2018)
# Target: Stromal interaction molecule 1 & 2/Calcium release-activated calcium channel protein 1 (Mus musculus) (UniProt Q8BWG9+P70302+P83093)
# Assay: (§1) Modulation of STIM1/STIM2/Orai1 in mouse BV2 cells assessed as induction of store-operated calcium entry by measuring residual activity at 10 uM preincubated for 30 mins followed by tBhQ-mediated Ca2+ depletion and Ca2+ re-addition to extracellular solution measured for 600 secs by Fluo-4 AM-based fluorometric assay relative to control
# Format: cell-based
row,SMILES,Activity
1,CCOC(=O)c1cnn(-c2ccc(-c3cn(-c4cccc(NC(C)=O)c4)nn3)cc2)c1C(F)(F)F,117%
2,O=C(O)CCCn1cc(-c2ccc(-n3nc(C(F)(F)F)cc3C(F)(F)F)cc2)nn1,81.7%
3,CCOC(=O)c1cnn(-c2ccc(-c3cn(-c4ccc(NC(C)=O)cc4)nn3)cc2)c1C(F)(F)F,108%
4,CCOC(=O)c1cnn(-c2ccc(-c3cn(-c4ccc(N)cc4)nn3)cc2)c1C(F)(F)F,93.2%
5,COc1cc(-c2cn(-c3ccc(-n4nc(C(F)(F)F)cc4C(F)(F)F)cc3)nn2)ccc1O,80.5%
6,CCOC(=O)c1cnn(-c2ccc(-n3cc(-c4ccccc4NC(C)=O)nn3)cc2)c1C(F)(F)F,72%
7,Nc1cccc(-n2cc(-c3ccc(-n4nc(C(F)(F)F)cc4C(F)(F)F)cc3)nn2)c1,85.6%
8,COc1cccc(-c2cn(-c3ccc(-n4nc(C(F)(F)F)cc4C(F)(F)F)cc3)nn2)c1,105%
9,COc1cc(OC)cc(-n2cc(-c3ccc(-n4nc(C(F)(F)F)cc4C(F)(F)F)cc3)nn2)c1,93.7%
10,CCOC(=O)c1cnn(-c2ccc(-n3cc(-c4cccnc4)nn3)cc2)c1C(F)(F)F,91.6%
11,CC(=O)Nc1cccc(-c2cn(-c3ccc(-n4nc(C(F)(F)F)cc4C(F)(F)F)cc3)nn2)c1,98.1%
12,Nc1cccc(-c2cn(-c3ccc(-n4nc(C(F)(F)F)cc4C(F)(F)F)cc3)nn2)c1,103%
13,CC(=O)Nc1ccc(-n2cc(-c3ccc(-n4nc(C(F)(F)F)cc4C(F)(F)F)cc3)nn2)cc1,98.8%
14,CCOC(=O)c1cnn(-c2ccc(-n3cc(-c4cccc(OC)c4)nn3)cc2)c1C(F)(F)F,105%
15,CCOC(=O)c1cnn(-c2ccc(-n3cc(-c4cccc(O)c4)nn3)cc2)c1C(F)(F)F,96.5%
16,FC(F)(F)c1cc(C(F)(F)F)n(-c2ccc(-c3cn(-c4ccccc4)nn3)cc2)n1,99.7%
17,CCOC(=O)c1cnn(-c2ccc(-n3cc(-c4ccc(Oc5ccccc5)cc4)nn3)cc2)c1C(F)(F)F,83.8%
18,Nc1ccc(-n2cc(-c3ccc(-n4nc(C(F)(F)F)cc4C(F)(F)F)cc3)nn2)cc1,90.2%
19,CCOC(=O)c1cnn(-c2ccc(-n3cc(-c4ccncc4)nn3)cc2)c1C(F)(F)F,68.1%
20,CCOC(=O)c1cnn(-c2ccc(-n3cc(-c4ccc(N)cc4)nn3)cc2)c1C(F)(F)F,91.7%
21,CCOC(=O)c1cnn(-c2ccc(-n3cc(-c4cccc(NC(C)=O)c4)nn3)cc2)c1C(F)(F)F,75.3%
22,FC(F)(F)c1cc(C(F)(F)F)n(-c2ccc(-n3cc(-c4ccc(Oc5ccccc5)cc4)nn3)cc2)n1,73.5%
23,FC(F)(F)c1cc(C(F)(F)F)n(-c2ccc(-c3cn(-c4ccc(Cl)cc4)nn3)cc2)n1,116%

row,SMILES,Activity
1,FC(F)(F)c1cc(C(F)(F)F)n(-c2ccc(-c3cn(-c4ccncc4)nn3)cc2)n1,84%
2,FC(F)(F)c1cc(C(F)(F)F)n(-c2ccc(-c3cn(-c4cccnc4)nn3)cc2)n1,77%
3,FC(F)(F)c1cc(C(F)(F)F)n(-c2ccc(-n3cc(-c4ccc(Cl)cc4)nn3)cc2)n1,106%
4,CCOC(=O)c1cnn(-c2ccc(-c3cn(-c4cccnc4)nn3)cc2)c1C(F)(F)F,62.6%
5,O=C(O)c1cccc(-n2cc(-c3ccc(-n4nc(C(F)(F)F)cc4C(F)(F)F)cc3)nn2)c1,80.2%
6,CC(=O)Nc1cccc(-n2cc(-c3ccc(-n4nc(C(F)(F)F)cc4C(F)(F)F)cc3)nn2)c1,101%
7,COc1ccc(-c2cn(-c3ccc(-n4nc(C(F)(F)F)cc4C(F)(F)F)cc3)nn2)cc1,99.6%
8,CCOC(=O)c1cnn(-c2ccc(-n3cc(-c4ccc(Cl)cc4)nn3)cc2)c1C(F)(F)F,88.6%
9,COc1ccc(-c2cn(-c3ccc(-n4nc(C(F)(F)F)cc4C(F)(F)F)cc3)nn2)cc1OC,109%
10,Fc1cnccc1-n1cc(-c2ccc(-n3nc(C(F)(F)F)cc3C(F)(F)F)cc2)nn1,106%
11,CCOC(=O)c1cnn(-c2ccc(-c3cn(-c4ccccc4)nn3)cc2)c1C(F)(F)F,97.5%
12,CC(=O)Nc1ccccc1-c1cn(-c2ccc(-n3nc(C(F)(F)F)cc3C(F)(F)F)cc2)nn1,93.2%
13,Nc1ccc(-c2cn(-c3ccc(-n4nc(C(F)(F)F)cc4C(F)(F)F)cc3)nn2)cc1,98.1%
14,CCOC(=O)c1cnn(-c2ccc(-n3cc(-c4ccncc4F)nn3)cc2)c1C(F)(F)F,107%
15,FC(F)(F)c1cc(C(F)(F)F)n(-c2ccc(-n3cc(-c4ccncc4)nn3)cc2)n1,94.7%
16,CCOC(=O)c1cnn(-c2ccc(-c3cn(-c4cccc(O)c4)nn3)cc2)c1C(F)(F)F,106%
17,CCOC(=O)c1cnn(-c2ccc(-c3cn(-c4cc(OC)cc(OC)c4)nn3)cc2)c1C(F)(F)F,113%
18,CCOC(=O)c1cnn(-c2ccc(-c3cn(-c4ccc(OC)c(OC)c4)nn3)cc2)c1C(F)(F)F,113%
19,CCOC(=O)c1cnn(-c2ccc(-n3cc(-c4ccccn4)nn3)cc2)c1C(F)(F)F,81%
20,Oc1cccc(-n2cc(-c3ccc(-n4nc(C(F)(F)F)cc4C(F)(F)F)cc3)nn2)c1,105%
21,CCOC(=O)c1cnn(-c2ccc(-n3cc(-c4cc(OC)cc(OC)c4)nn3)cc2)c1C(F)(F)F,99.4%
22,CCOC(=O)c1cnn(-c2ccc(-c3cn(-c4ccccn4)nn3)cc2)c1C(F)(F)F,77%
23,Oc1cccc(-c2cn(-c3ccc(-n4nc(C(F)(F)F)cc4C(F)(F)F)cc3)nn2)c1,95.9%

row,SMILES,Activity
1,CCOC(=O)c1cnn(-c2ccc(-n3cc(-c4ccc(NC(C)=O)cc4)nn3)cc2)c1C(F)(F)F,106%
2,CCOC(=O)c1cnn(-c2ccc(-c3cn(-c4ccc(Oc5ccccc5)cc4)nn3)cc2)c1C(F)(F)F,101%
3,CCOC(=O)c1cnn(-c2ccc(-c3cn(-c4cccc(OC)c4)nn3)cc2)c1C(F)(F)F,117%
4,COc1ccc(-n2cc(-c3ccc(-n4nc(C(F)(F)F)cc4C(F)(F)F)cc3)nn2)cc1,78.7%
5,O=C(O)CCCc1cn(-c2ccc(-n3nc(C(F)(F)F)cc3C(F)(F)F)cc2)nn1,80.1%
6,FC(F)(F)c1cc(C(F)(F)F)n(-c2ccc(-n3cc(-c4ccccn4)nn3)cc2)n1,114%
7,CCOC(=O)c1cnn(-c2ccc(-n3cc(-c4ccccc4)nn3)cc2)c1C(F)(F)F,86.1%
8,FC(F)(F)c1cc(C(F)(F)F)n(-c2ccc(-c3cn(-c4ccc(Oc5ccccc5)cc4)nn3)cc2)n1,90.2%
9,Fc1cnccc1-c1cn(-c2ccc(-n3nc(C(F)(F)F)cc3C(F)(F)F)cc2)nn1,90.2%
10,FC(F)(F)c1cc(C(F)(F)F)n(-c2ccc(-n3cc(-c4ccccc4)nn3)cc2)n1,99.2%
11,CC(=O)Nc1ccc(-c2cn(-c3ccc(-n4nc(C(F)(F)F)cc4C(F)(F)F)cc3)nn2)cc1,98.5%
12,CCOC(=O)c1cnn(-c2ccc(-c3cn(-c4ccc(OC)cc4)nn3)cc2)c1C(F)(F)F,83.1%
13,CCOC(=O)c1cnn(-c2ccc(-n3cc(-c4ccc(OC)c(OC)c4)nn3)cc2)c1C(F)(F)F,82.8%
14,FC(F)(F)c1cc(C(F)(F)F)n(-c2ccc(-n3cc(-c4cccnc4)nn3)cc2)n1,87.8%
15,CCOC(=O)c1cnn(-c2ccc(-n3cc(-c4ccc(OC)cc4)nn3)cc2)c1C(F)(F)F,95.6%
16,FC(F)(F)c1cc(C(F)(F)F)n(-c2ccc(-c3cn(-c4ccccn4)nn3)cc2)n1,88.8%
17,COc1cccc(-n2cc(-c3ccc(-n4nc(C(F)(F)F)cc4C(F)(F)F)cc3)nn2)c1,113%
18,CCOC(=O)c1cnn(-c2ccc(-c3cn(-c4ccncc4)nn3)cc2)c1C(F)(F)F,79.8%
19,COc1cc(OC)cc(-c2cn(-c3ccc(-n4nc(C(F)(F)F)cc4C(F)(F)F)cc3)nn2)c1,75.2%
20,COc1ccc(-n2cc(-c3ccc(-n4nc(C(F)(F)F)cc4C(F)(F)F)cc3)nn2)cc1OC,94.3%
21,CCOC(=O)c1cnn(-c2ccc(-n3cc(CCCC(=O)O)nn3)cc2)c1C(F)(F)F,72.2%

# Target: Short transient receptor potential channel 1 & 3/Stromal interaction molecule 1/Calcium release-activated calcium channel protein 1 (Homo sapiens) (UniProt Q96D31+Q13507+Q13586+P48995)
# Sequence (P48995 whole entry partner): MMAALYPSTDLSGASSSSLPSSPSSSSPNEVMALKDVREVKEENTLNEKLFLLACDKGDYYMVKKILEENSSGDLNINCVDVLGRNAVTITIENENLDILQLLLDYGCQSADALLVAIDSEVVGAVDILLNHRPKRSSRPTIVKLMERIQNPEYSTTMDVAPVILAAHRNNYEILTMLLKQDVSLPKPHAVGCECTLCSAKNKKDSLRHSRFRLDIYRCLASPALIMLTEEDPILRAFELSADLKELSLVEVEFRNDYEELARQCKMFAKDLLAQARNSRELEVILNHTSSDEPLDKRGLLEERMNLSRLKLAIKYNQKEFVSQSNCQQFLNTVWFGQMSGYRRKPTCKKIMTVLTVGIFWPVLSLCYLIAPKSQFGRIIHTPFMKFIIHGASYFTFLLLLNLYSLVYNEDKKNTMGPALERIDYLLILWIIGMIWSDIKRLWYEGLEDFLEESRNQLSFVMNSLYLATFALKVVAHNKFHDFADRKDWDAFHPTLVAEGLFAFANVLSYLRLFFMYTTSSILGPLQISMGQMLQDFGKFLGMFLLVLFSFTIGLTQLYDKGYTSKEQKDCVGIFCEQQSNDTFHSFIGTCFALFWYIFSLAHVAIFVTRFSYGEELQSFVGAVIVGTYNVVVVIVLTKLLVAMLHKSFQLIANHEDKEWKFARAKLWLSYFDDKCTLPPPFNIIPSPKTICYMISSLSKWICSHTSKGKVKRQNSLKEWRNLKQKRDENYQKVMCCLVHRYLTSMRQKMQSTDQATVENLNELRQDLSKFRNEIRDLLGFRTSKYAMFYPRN
# Sequence (Q13507 whole entry partner): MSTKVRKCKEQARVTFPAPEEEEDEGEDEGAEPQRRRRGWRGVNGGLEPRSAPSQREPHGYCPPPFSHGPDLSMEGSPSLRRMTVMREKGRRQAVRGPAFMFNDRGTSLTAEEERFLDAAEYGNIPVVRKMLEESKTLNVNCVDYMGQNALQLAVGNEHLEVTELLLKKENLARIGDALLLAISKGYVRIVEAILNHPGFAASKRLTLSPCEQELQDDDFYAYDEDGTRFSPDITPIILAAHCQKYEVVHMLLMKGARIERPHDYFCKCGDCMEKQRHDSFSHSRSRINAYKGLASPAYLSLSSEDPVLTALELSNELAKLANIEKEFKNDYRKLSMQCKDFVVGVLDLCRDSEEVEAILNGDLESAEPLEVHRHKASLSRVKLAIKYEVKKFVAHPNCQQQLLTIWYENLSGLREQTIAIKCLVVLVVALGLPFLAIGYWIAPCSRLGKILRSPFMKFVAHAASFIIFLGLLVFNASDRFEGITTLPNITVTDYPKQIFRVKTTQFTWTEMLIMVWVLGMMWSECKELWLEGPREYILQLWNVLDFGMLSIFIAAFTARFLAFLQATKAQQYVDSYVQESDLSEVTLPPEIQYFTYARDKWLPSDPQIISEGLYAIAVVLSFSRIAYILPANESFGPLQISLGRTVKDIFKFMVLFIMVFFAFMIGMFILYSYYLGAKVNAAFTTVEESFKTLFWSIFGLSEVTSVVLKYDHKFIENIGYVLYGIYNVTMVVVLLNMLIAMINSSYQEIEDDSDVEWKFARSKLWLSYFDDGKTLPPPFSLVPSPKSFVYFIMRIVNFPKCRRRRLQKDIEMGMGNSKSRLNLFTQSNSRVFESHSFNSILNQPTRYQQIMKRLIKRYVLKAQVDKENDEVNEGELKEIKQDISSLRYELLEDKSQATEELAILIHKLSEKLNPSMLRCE
# Sequence (Q13586 23-685 partner limits assumed): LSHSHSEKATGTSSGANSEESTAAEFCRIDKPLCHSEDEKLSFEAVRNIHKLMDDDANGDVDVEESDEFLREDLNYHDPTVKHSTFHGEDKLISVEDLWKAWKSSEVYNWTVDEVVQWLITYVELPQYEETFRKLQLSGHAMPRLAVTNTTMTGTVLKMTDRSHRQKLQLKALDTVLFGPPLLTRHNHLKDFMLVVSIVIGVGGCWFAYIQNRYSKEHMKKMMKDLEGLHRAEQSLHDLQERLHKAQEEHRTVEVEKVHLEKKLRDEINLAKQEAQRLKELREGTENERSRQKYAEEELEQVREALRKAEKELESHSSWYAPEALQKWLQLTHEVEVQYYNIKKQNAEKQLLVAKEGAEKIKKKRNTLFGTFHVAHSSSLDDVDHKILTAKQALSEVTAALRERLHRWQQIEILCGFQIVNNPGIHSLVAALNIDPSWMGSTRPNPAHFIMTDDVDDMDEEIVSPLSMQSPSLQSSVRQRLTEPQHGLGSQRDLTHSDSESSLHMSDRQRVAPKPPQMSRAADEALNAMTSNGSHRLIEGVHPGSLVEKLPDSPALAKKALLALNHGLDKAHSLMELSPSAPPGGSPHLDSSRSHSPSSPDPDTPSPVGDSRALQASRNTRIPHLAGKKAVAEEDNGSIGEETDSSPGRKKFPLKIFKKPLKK
# Sequence (Q96D31 whole entry): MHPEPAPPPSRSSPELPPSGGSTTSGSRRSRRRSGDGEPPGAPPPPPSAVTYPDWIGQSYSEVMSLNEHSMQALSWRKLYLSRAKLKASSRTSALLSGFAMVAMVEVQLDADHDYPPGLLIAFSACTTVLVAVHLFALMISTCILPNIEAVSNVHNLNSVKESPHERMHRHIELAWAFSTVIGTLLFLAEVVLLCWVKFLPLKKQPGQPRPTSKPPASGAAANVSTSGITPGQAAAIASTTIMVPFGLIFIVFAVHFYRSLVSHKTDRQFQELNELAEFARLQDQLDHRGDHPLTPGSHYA
# Assay: as §1, with “TRPC1/TRPC3/STIM1/Orai1” for “STIM1/STIM2/Orai1”, “HEK” for “mouse BV2”
# Format: cell-based
row,SMILES,Activity
1,CCOC(=O)c1cnn(-c2ccc(-c3cn(-c4cccc(CO)c4)nn3)cc2)c1C(F)(F)F,> 90%
2,CC(C)=CCC/C(C)=C/COC(=O)c1cnn(-c2ccc(-n3cc(-c4cccc(C(=O)O)c4)nn3)cc2)c1C(F)(F)F,> 90%
3,CC(C)NC(=O)c1cnn(-c2ccc(-n3cc(-c4cccc(C(=O)O)c4)nn3)cc2)c1C(F)(F)F,> 90%
4,CCOC(=O)c1cnn(-c2ccc(C(=O)Nc3cccc(C(=O)O)c3)cc2)c1C(F)(F)F,> 90%
5,CCOC(=O)c1cnn(-c2ccc(-c3cn(-c4cccc(C(C)=O)c4)nn3)cc2)c1C(F)(F)F,> 90%
6,CCOC(=O)c1cnn(-c2ccc(-n3cc(-c4cccc(C(=O)NS(C)(=O)=O)c4)nn3)cc2)c1C(F)(F)F,> 90%
7,CC(C)CCOC(=O)c1cnn(-c2ccc(-n3cc(-c4cccc(C(=O)O)c4)nn3)cc2)c1C(F)(F)F,> 90%
8,CCOC(=O)c1cnn(-c2ccc(-n3cc(-c4cccc(C(N)=O)c4)nn3)cc2)c1C(F)(F)F,72.1%
9,CCOC(=O)c1cnn(-c2ccc(-n3cc(-c4cccc(S(N)(=O)=O)c4)nn3)cc2)c1C(F)(F)F,83.6%
10,O=C(O)c1cccc(-c2cn(-c3ccc(-n4ncc(C(=O)OCCN5CCOCC5)c4C(F)(F)F)cc3)nn2)c1,> 90%
11,O=C(O)c1cccc(-c2cn(-c3ccc(-n4ncc(C(=O)O)c4C(F)(F)F)cc3)nn2)c1,> 90%
12,CCOC(=O)c1cnn(-c2ccc(-n3cc(-c4cccc(C(=O)OC)c4)nn3)cc2)c1C(F)(F)F,> 90%
13,NC(=O)c1cnn(-c2ccc(-n3cc(-c4cccc(C(=O)O)c4)nn3)cc2)c1C(F)(F)F,> 90%
14,O=C(O)c1cccc(-c2cn(-c3ccc(-n4ncc(CO)c4C(F)(F)F)cc3)nn2)c1,> 90%
15,CCOC(=O)c1cnn(-c2ccc(-n3nncc3-c3cccc(C(=O)O)c3)cc2)c1C(F)(F)F,> 90%
16,O=C(O)c1cccc(-c2cn(-c3ccc(-n4ncc(C(=O)OCc5ccncc5)c4C(F)(F)F)cc3)nn2)c1,> 90%
